Columns and labels:
[1] = target: T1, Peroxisome proliferator-activated receptor alpha (Homo sapiens, UniProt Q07869); assay: Agonist activity at GAL4-tagged PPARalpha ligand-binding domain (unknown origin) expressed in HEK293T cells incubated for 16 to 19 hrs by beta-lactamase reporter gene assay; format: cell-based, HEK-293T
T1 sequence (Q07869 whole entry): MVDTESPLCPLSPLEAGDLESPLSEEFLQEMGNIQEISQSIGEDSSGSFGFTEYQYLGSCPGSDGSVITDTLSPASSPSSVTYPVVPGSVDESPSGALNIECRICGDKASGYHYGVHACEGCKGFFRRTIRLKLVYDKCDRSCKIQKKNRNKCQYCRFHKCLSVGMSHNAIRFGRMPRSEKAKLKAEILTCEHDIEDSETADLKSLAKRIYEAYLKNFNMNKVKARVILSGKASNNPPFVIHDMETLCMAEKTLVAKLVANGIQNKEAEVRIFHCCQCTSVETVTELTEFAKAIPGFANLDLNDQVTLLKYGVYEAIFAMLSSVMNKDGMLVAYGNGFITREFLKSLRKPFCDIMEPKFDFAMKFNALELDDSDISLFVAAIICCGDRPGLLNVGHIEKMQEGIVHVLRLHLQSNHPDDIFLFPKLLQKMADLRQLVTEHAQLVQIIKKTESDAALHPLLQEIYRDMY

[2] = target: T2, Peroxisome proliferator-activated receptor delta (Homo sapiens, UniProt Q03181); assay: Agonist activity at GAL4-tagged PPARdelta (unknown origin)
T2 sequence (Q03181 whole entry): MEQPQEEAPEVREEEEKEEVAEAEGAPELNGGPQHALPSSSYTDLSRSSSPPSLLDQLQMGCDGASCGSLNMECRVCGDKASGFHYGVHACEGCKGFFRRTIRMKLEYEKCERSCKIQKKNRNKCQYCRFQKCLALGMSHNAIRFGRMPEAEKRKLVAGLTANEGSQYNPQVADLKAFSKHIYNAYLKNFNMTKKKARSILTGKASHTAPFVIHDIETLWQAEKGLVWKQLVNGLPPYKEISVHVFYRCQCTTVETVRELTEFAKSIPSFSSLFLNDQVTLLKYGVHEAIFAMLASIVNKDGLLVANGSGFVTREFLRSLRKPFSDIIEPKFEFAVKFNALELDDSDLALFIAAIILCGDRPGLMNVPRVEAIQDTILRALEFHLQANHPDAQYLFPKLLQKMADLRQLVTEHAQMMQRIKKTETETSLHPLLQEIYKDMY

[3] = target: T3, Peroxisome proliferator-activated receptor gamma (Homo sapiens, UniProt P37231); assay: Agonist activity at GAL4-tagged PPARgamma (unknown origin)
T3 sequence (P37231 whole entry): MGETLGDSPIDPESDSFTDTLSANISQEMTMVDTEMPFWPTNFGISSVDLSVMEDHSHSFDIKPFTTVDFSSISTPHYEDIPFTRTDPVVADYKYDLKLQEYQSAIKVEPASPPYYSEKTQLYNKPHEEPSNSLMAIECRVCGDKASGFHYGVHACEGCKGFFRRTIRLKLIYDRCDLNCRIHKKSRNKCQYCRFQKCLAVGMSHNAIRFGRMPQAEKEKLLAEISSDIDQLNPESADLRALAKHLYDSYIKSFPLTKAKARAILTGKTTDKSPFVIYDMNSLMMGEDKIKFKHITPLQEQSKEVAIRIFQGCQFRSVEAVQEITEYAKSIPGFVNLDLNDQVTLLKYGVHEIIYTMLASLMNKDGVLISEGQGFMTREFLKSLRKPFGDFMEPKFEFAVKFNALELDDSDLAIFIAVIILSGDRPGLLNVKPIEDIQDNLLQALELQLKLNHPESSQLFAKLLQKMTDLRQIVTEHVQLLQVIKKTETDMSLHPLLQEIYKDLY

SMILES | EC50 [1] [µM] | EC50 [2] [µM] | EC50 [3] [µM]
CCCCCOC(=O)c1ccc(NC(=O)c2cccc(NC(=O)c3ccccc3C(=O)O)c2)cc1 | 0.0011 | – | –
Cc1nc(-c2ccc(Cl)cc2)sc1C(=O)N[C@H]1CCCN(c2cccc(C(=O)O)c2)C1 | – | 13 | 6.6
Cc1ccc(-c2nc(C)c(C(=O)N[C@H]3CCCN(c4cccc(C(=O)O)c4)C3)s2)cc1 | – | 11 | 3.1
Cc1c(C(=O)O)cccc1-c1ccc(/C=C2/SC(=O)N(CC(=O)Nc3ccc(F)cc3)C2=O)o1 | 0.00016 | – | –
CCOC(=O)C1=C(Nc2ccc(OCC)cc2)S/C(=C/c2ccc(OCC(=O)O)c(OC)c2)C1=O | 0.0121 | – | –
Cc1nc(-c2cccc(C(F)(F)F)c2)sc1CNCc1ccc(OC(C)(C)C(=O)O)cc1 | 0.004 | 25 | 25
CC[C@@H](Oc1cccc(CN(CCCOc2ccc(OC)cc2)c2nc3ccccc3o2)c1)C(=O)O [PEMAFIBRATE] | – | 10 | 1.7

Reference: ChEMBL document CHEMBL3352104, “Biological evaluation and structural insights for design of subtype-selective peroxisome proliferator activated receptor-α (PPAR-α) agonists” (Bioorg Med Chem Lett, 2015)
